Read-outs that look alike come from different tables or passages of the source.
Details: for Purity (area %): HPLC; for degradation: after 36 hours exposure to sunlight; for appearance after exposure to sunlight: exposed to sunlight
[1] = Initial, before exposure to sunlight

Method: 100 mg each of the above-mentioned 6 salts was respectively placed in 6 test tubes to prepare a total of 36 samples (6 samples per salt), and they were exposed to sunlight for 36 hours. Then, samples of each salt were taken at 6 hour-intervals and stored in a cool and dark place. After 36 hours, each sample was diluted with a 20 mM ammonium acetate buffer solution (pH=5.0)—acetonitrile mixture (1:1, v/v) and analyzed by HPLC under the following conditions: • Column: Symmetry C8 (4.6 mm×100 mm, 3.5 μm, Water, US) • Eluent: 1 l of a solution of 7 g perchloric acid monohydrate and 1.74 g potassium monohydrogen phosphate in purified water, which adjusted to pH 2.8 by the addition of phosphoric acid.

SMILES	Purity (area %) [1] [area %]	Purity (area %) (exposed to sunlight 6 hours)	Purity (area %) (exposed to sunlight 12 hours)	Purity (area %) (exposed to sunlight 18 hours)	Purity (area %) (exposed to sunlight 24 hours)	Purity (area %) (exposed to sunlight 30 hours)	Purity (area %) (exposed to sunlight 36 hours)	degradation	appearance after exposure to sunlight
CC1(C)C2CCC1(CS(=O)(=O)O)C(=O)C2.CCOC(=O)C1=C(COCCN)NC(C)=C(C(=O)OC)[C@@H]1c1ccccc1Cl.O (racemic) [(±)-10-Camsylate hydrate of Ex. 3, S-(−)-amlodipine (±)-10-camsylate hydrate]	99.8	99.9	99.8	99.7	99.6	99.4	99.3	–	–
CC1(C)[C@@H]2CC[C@@]1(CS(=O)(=O)O)C(=O)C2.CCOC(=O)C1=C(COCCN)NC(C)=C(C(=O)OC)[C@@H]1c1ccccc1Cl [(1S)-(+)-10-Camsylate anhydride of Ex. 2, S-(−)-amlodipine (1S)-(+)-10-camsylate anhydride]	99.9	99.9	99.9	99.9	99.8	99.7	99.7	–	–
CC1(C)[C@@H]2CC[C@@]1(CS(=O)(=O)O)C(=O)C2.CCOC(=O)C1=C(COCCN)NC(C)=C(C(=O)OC)[C@@H]1c1ccccc1Cl.O [(1S)-(+)-10-Camsylate hydrate of Ex. 1, S-(−)-amlodipine (1S)-(+)-10-camsylate hydrate]	99.9	99.9	99.9	99.8	99.8	99.7	99.7	–	–
CC1(C)[C@H]2CC[C@]1(CS(=O)(=O)O)C(=O)C2.CCOC(=O)C1=C(COCCN)NC(C)=C(C(=O)OC)[C@@H]1c1ccccc1Cl [(R)-Camsylate of Ref. Ex. 1, S-(−)-amlodipine (R)-camsylate]	99.8	99.9	99.7	99.0	98.1	96.2	94.8	about 5%	color change of their surface from off-white to brown, and they becomes partially melted
CCOC(=O)C1=C(COCCN)NC(C)=C(C(=O)OC)[C@@H]1c1ccccc1Cl.O=S(=O)(O)c1ccccc1 [Besylate, (S)-(−)-amlodipine besylate]	99.8	99.9	99.4	98.5	96.4	94.4	93.4	about 7%	color change of their surface from off-white to brown, and they becomes partially melted
CCOC(=O)C1=C(COCCN)NC(C)=C(C(=O)OC)C1c1ccccc1Cl (stereo not drawn) [Nicotinate dehydrate, (s)-(−)-amlodipine nicotinate dihyrate]	99.8	99.6	99.0	98.3	98.3	98.2	97.9	~2%	–
